Laboratory results from US7932290B2, “Method for the treatment of metabolic disorders” (Wellstat Biologics Corporation, priority 2003, dated 2011).

Assays:
[1] = target: T1, Human PPARα LBD fusion protein (Homo sapiens, UniProt Q07869); experiment: Transcription activation potential, GAL4 luciferase reporter in C3A cells; format: cell-based
T1 construct: a.a; 167-468)
T1 sequence (Q07869 167-468): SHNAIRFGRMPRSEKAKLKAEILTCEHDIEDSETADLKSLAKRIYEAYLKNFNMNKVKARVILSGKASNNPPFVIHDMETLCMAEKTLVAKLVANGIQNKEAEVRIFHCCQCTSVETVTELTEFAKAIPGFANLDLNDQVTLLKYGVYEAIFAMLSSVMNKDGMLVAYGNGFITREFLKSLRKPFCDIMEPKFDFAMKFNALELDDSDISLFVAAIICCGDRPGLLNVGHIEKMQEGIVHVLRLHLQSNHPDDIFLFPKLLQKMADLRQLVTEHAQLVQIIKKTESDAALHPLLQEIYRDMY
Protocol: (§1) Cells were seeded in 24 well plates the day prior to transfection at 5×10^4−2×10^5 cells/well, depending upon cell type. Cells were transfected using Lipofectamine 2000 reagent from Invitrogen. A total of 0.8 μg DNA/well was added to 50 μL of Optimem Reduced Serum media (serum free; Gibco). Lipofectamine 2000 was added (2.5 μL/well) to another tube containing 50 μL of Optimem media. Plasmid DNA was added at a ratio of 4:3 (reporter:activator); where appropriate, salmon sperm DNA was substituted for activator expressing plasmid. The reporter plasmid used was pFR-Luc, which has the firefly luciferase gene under the control of a GAL4 UAS ([…]) containing promoter. The activator expressing plasmids contain yeast GAL4 DNA binding domain (dbd) fusion of either human PPARα ligand binding domain (LBD; a.a. 167-468) or human PPARγ LBD (a.a. 176-479). DNA constructs containing the mouse PPARα or PPARγ LBD fused to the GAL4 DNA binding domain were also used. The two solutions were incubated at room temperature for 5 min, and then combined. The combined solution was incubated at room temperature for approximately 30 min. Cells were washed once with PBS, and 100 μL of transfection mix added to each well. Plates were incubated at 37° C. in a 5% CO2 incubator for 4.5 hr, followed by aspiration of the transfection mix, with plates refed using EMEM complete media (supplemented with 10% FBS, 1× Glutamine). 24 hr post-transfection, plates were treated with the appropriate compounds in EMEM complete media, followed by washing once with PBS and addition of 100 μL 1× reporter lysis buffer/well (Promega) 24 hr after treatment. Plates went through one freeze/thaw cycle prior to analysis. Approximately 10 μL of lysate was added to 100 μL of firefly luciferase substrate, mixed by pipetting, and analyzed on a luminometer for 10 s using the integration function (relative luciferase units/RLU) or on a Microbeta Trilux (luciferase counts per second/LCPS). Each treatment was performed in triplicate, and in multiple, separate experiments.

[2] = target: T2, Mouse PPARα LBD fusion protein (Mus musculus, UniProt P23204); experiment: as above; format: cell-based
T2 sequence (P23204 239-466): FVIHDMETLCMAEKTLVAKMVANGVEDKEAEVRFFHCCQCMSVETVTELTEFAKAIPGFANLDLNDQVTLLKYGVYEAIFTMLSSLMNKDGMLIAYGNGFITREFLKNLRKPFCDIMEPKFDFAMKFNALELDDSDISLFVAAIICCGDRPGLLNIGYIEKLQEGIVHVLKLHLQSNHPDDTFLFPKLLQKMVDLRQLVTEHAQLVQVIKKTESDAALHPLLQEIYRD
Protocol: as §1

db/db mice = experiment: Antidiabetic effects in db/db mice, Example C (17 days daily oral dosing); format: in vivo, mouse
Text: C57BL/Ksola (db/db) mice have a defect in leptin signaling, leading to hyperphagia, obesity and diabetes. Moreover, unlike ob/ob mice on a C57BL/6J background, db/db mice on a C57BLKS background undergo failure of their insulin-producing pancreatic islet cells, resulting in progression from hyperinsulinemia (associated with peripheral insulin resistance) to hypoinsulinemic diabetes.
Male obese (db/db homozygote) C57BL/Ksola mice approximately 8 weeks of age, were obtained from Jackson Labs (Bar Harbor, Me.) and sorted into groups of 7 animals each animals such that the body weights (40-45 g) and serum glucose levels (≧300 mg/dl in fed state) were similar between groups. A minimum of 7 days was allowed for adaptation after arrival. All animals were maintained under controlled temperature (23° C.), relative humidity (50±5%) and light (7:00-19:00), and allowed free access to standard chow (Formulab Diet 5008, Quality Lab Products, Elkridge, Md.) and water.
Treatment cohorts were given daily oral doses of vehicle (1% hydroxypropylmethylcellulose), Compounds BI, CF, CG, or phenylacetate for 17 days. At the end of the treatment period, blood samples were collected and serum glucose and triglycerides were measured.

transcription activation potential (luciferase) ± standard deviation ([1]; 1 μM)	transcription activation potential (luciferase) ± standard deviation ([1]; 3 μM)	transcription activation potential (luciferase) ± standard deviation ([1]; 10 μM)	transcription activation potential (luciferase) ± standard deviation ([1]; 30 μM)	transcription activation potential (luciferase) ± standard deviation ([1]; 100 μM)	transcription activation potential (luciferase) ± standard deviation ([1]; 200 μM)	transcription activation potential (luciferase) ± standard deviation ([2]; 1 μM, Table 20a)	transcription activation potential (luciferase) ± standard deviation ([2]; 3 μM, Table 20a)	transcription activation potential (luciferase) ± standard deviation ([2]; 10 μM, Table 20a)	transcription activation potential (luciferase) ± standard deviation ([2]; 30 μM, Table 20a)	transcription activation potential (luciferase) ± standard deviation ([2]; 100 μM, Table 20a)	transcription activation potential (luciferase) ± standard deviation ([2]; 100 μM, Table 21a)	transcription activation potential (luciferase) ± standard deviation ([2]; 200 μM, Table 20a)	transcription activation potential (luciferase) ± standard deviation ([2]; 1 μM, Table 21a)	transcription activation potential (luciferase) ± standard deviation ([2]; 3 μM, Table 21a)	transcription activation potential (luciferase) ± standard deviation ([2]; 5 μM, Table 21a)	transcription activation potential (luciferase) ± standard deviation ([2]; 7 μM, Table 21a)	transcription activation potential (luciferase) ± standard deviation ([2]; 10 μM, Table 21a)	Compound	Glucose mg/dL (±SEM) (db/db mice; 100 mg/kg daily oral)	Triglycerides (db/db mice; 100 mg/kg daily oral)	other results
127.7 ± 7.1 LCPS	128 ± 70.7 LCPS	52.7 ± 8.2 LCPS	55.4 ± 16.2 LCPS	20.9 ± 13.1 LCPS	31.1 ± 29.4 LCPS	14.67 ± 1.08 LCPS	15.2 ± 2.78 LCPS	15.1 ± 3.78 LCPS	10.43 ± 1.81 LCPS	15.37 ± 6.21 LCPS	4421 ± 118 RLU	18.6 ± 11.66 LCPS	–	–	–	–	–	Cc1cccc(C)c1COc1cccc(C(=O)CCC(=O)O)c1 [Compound BI, 4-(3-(2,6-Dimethylbenzyloxy)phenyl)-4-oxobutyric acid]	472 ± 54 mg/dL	116 ± 4 mg/dL	Glucose mg/dL (±SEM) (db/db mice; 150 mg/kg daily oral): 348 ± 67 mg/dL; Triglycerides (db/db mice; 150 mg/kg daily oral): 90 ± 6 mg/dL
37 ± 11.5 LCPS	47 ± 22.8 LCPS	19.9 ± 7.8 LCPS	40.2 ± 18.9 LCPS	19 ± 14.2 LCPS	12.9 ± 8.3 LCPS	13.17 ± 7.84 LCPS	5.63 ± 0.42 LCPS	153.15 ± 24.4 LCPS	358.6 ± 5.23 LCPS	201.5 ± 50.84 LCPS	41037 ± 5401 RLU	106.77 ± 32.53 LCPS	2694 ± 159 RLU	4527 ± 740 RLU	7188 ± 1753 RLU	14325 ± 1032 RLU	16680 ± 2432 RLU	Cc1cccc(C)c1COc1cccc(CC(=O)O)c1 [Compound CF, 3-(2,6-Dimethylbenzyloxy)phenylacetic acid]	391 ± 61 mg/dL	92 ± 6 mg/dL	transcription activation potential (luciferase) ± standard deviation ([2]; 30 μM, Table 21a): 38105 ± 3133 RLU; Glucose mg/dL (±SEM) (db/db mice; 30 mg/kg daily oral): 586 ± 31 mg/dL; Triglycerides (db/db mice; 30 mg/kg daily oral): 156 ± 20 mg/dL; Glucose mg/dL (±SEM) (db/db mice; 60 mg/kg daily oral): 604 ± 36 mg/dL; Triglycerides (db/db mice; 60 mg/kg daily oral): 120 ± 13 mg/dL
10.9 ± 11.6 LCPS	19.1 ± 6.1 LCPS	17.9 ± 5.2 LCPS	38.2 ± 21.1 LCPS	23.9 ± 5.3 LCPS	159.4 ± 29.6 LCPS	4.43 ± 2.25 LCPS	9.17 ± 3.72 LCPS	7.87 ± 0.7 LCPS	11.63 ± 5.01 LCPS	11.8 ± 8.95 LCPS	926 ± 1362 RLU	80.3 ± 2 LCPS	361 ± 398 RLU	706 ± 399 RLU	492 ± 160 RLU	652 ± 190 RLU	394 ± 84 RLU	Cc1cccc(C)c1COc1cccc(C(=O)O)c1 [Compound CG, 3-(2,6-Dimethylbenzyloxy)benzoic acid]	753 ± 24 mg/dL	166 ± 14 mg/dL	transcription activation potential (luciferase) ± standard deviation ([2]; 30 μM, Table 21a): 651 ± 643 RLU
